Consider `CCCCOc1ccc2c(c1)C(N(CCCO)S(C)(=O)=O)CC(C)(C)O2` (stereo not given), for which the melting point fell in the range of 69 to 71 °C.
As for `O=C(c1ccccc1)n1c(=O)c(F)cn(C2CC(O)C(CO)O2)c1=O` (stereo not given), the figure is 126 to 127 °C; as for `Cc1noc2ncnc(NC3Cc4ccccc4C3)c12`, 208 °C; as for `O=c1n(-c2cc(O)c(Cl)cc2F)nc2ccc(Cl)cn12`, over 210 °C.
`CC1(C)SC(=S)N(Cc2cccs2)C(=O)C1NC(=O)c1ccc(Cl)cc1` (stereo not given) returned a melting point of 176 to 177 °C.
Compound `COc1ccc(C2=NN(Cc3ccc([N+](=O)[O-])cc3)C(=O)SC2)cc1OC` came in with a melting point of 155 °C.
In the case of `CC(Cn1cc(-c2ccccc2)c2ccccc2c1=O)NCc1ccccc1` (stereo not given) it was 118 °C.
In the case of `c1ccc(OCCSCc2nnc(-c3ccc(OCCCN4CCC4)cc3)o2)cc1` it was 60 °C; in that of `COc1cc(C(=O)N2Cc3ccc(C(=O)NCc4cccnc4)n3Cc3ccccc32)ccc1-c1ccccc1C`, 165 to 167 °C; in that of `CC(=O)c1ccc2c3c1ccn3C(=O)CNC2`, 285 to 287 °C.
As for `O=C1c2ccccc2C(=O)N1CCc1ccc(OC2c3ccccc3CCc3ccccc32)cc1`, the figure is 205 to 207 °C; as for `COc1cccc(-n2c(-c3sc(Nc4ccc(Cl)cc4)nc3C)nc3ccccc3c2=O)c1`, 243 to 244 °C.
Compound `NNC(=O)c1ccc(-c2csc(N=C(N)N)n2)o1` showed a melting point of 279 to 280 °C.
As for `Clc1ccc2c(c1)CCN(c1ccccc1)C2`, the figure is 67 to 70 °C; as for `COc1ccc(NCCNc2ccc([N+](=O)[O-])cc2)cc1`, 150 °C; as for `O=C1CCC(N2C(=O)c3cccc(CNC(=O)c4cccc(C(F)(F)F)c4F)c3C2=O)C(=O)N1` (stereo not given), 155 to 157 °C.
As for `CC(C)(C)c1ccc(/C=C/C(=O)Nc2ccc3c(c2)CCO3)cc1`, the figure is 175 to 176 °C; as for `Cc1cc(N)cnc1Oc1cccc(C(C)(C)C)c1`, 83 to 84 °C.
Regarding `CCCOc1cnc(CCl)cc1O`, the melting point was in the range of 165 to 167 °C.
In the case of `CC(C)SC1=N/C(=C\c2c[nH]c3ncc(Cl)cc23)C(=O)N1` it was 291 to 293 °C; in that of `COc1nc2cc(Cl)c(Cl)c(N3NN=CC3CCO)c2nc1OC` (stereo not given), 212 to 214 °C.
In the case of `Nc1nc(O)nc(Cl)n1` it was 300 °C.
In the case of `CC(=O)Nc1ccc(Br)c(C)n1` it was 156 to 157 °C; in that of `C[C@]1(COc2ccc(N3CCC(COCc4ccc(C(F)(F)F)cc4)CC3)cc2)Cn2cc([N+](=O)[O-])nc2O1`, 172 to 173 °C; in that of `COc1ccc(-c2cc(Cl)cc3c2OC(C(F)(F)F)C(C(=O)O)=C3)cc1` (stereo not given), 194 to 196 °C.
Compound `CC(C)Cn1c(=O)n(C)c(=O)c2c(SCC(C)O)c(Cc3cccc4ccccc34)sc21` (stereo not given) registered a melting point of 126 to 128 °C.
In the case of `CCCc1nc2c(N)nc3cccnc3c2n1CCCCN(OC)C(C)=O` it was 155 to 156 °C; in that of `COc1cc(/C=C\c2ccc([N+](=O)[O-])cc2)cc(OC)c1OC`, 140 to 142 °C; in that of `Cc1cc(C2=NN(C(=O)C=CCC(=O)O)C(C)Cc3cc4c(cc32)OCO4)ccc1[N+](=O)[O-]` (stereo not given), 158 to 160 °C.
In the case of `c1ccc(C(c2ccccc2)N2CCN(CCCCCCNc3ccc4nncn4n3)CC2)cc1` it was 133 to 139 °C; in that of `O=[N+]([O-])c1cccc(-c2csc(Nc3ccccc3C(F)(F)F)n2)c1`, 182 °C.
In turn, `Cc1cccc(N2CCN(CCc3c(C)nc4c(C)cccn4c3=O)CC2)c1` returned a melting point of 106 °C.
In turn, `COC(=O)C(=O)CC(=O)c1ccc(Cl)cc1` yielded a melting point of 108 to 110 °C.
As for `COc1cccc2c1C(=O)c1c(OC)cc(C#N)cc1C2=O`, the figure is 266 to 268 °C; as for `Cn1nc(O[C@@H]2c3cc(C(F)(F)C(F)(F)F)ccc3OC(CF)(CF)[C@H]2O)ccc1=O` (relative stereo), 189 to 191 °C.
In the case of `CC(=O)NNc1ccnc2c(NC(=O)c3c(Cl)cccc3Cl)cccc12` it was 252 °C; in that of `Cc1nnc2n1-c1ccc(C#CCn3c(C)nc4ccccc4c3=O)cc1C(c1ccccc1F)=NC2`, 241 to 244 °C; in that of `OCc1c(F)cccc1-c1ccc2nc(-c3ccc(Cl)cc3)cn2c1`, 229 to 230 °C.
As for `CN(Cc1ccc2c(Br)c(OCC#N)ccc2c1)C(=O)c1oc2ccccc2c1CCc1ccccc1`, the figure is 51 to 55 °C; as for `COC(=O)C1=C(C)NC(C)=C(C(=O)OCCCl)C1c1cccc(Br)n1` (stereo not given), 152 to 153 °C.
`CCN(CC)C(=O)COc1ccc(C(=O)CBr)cc1OC` had a melting point of 101 to 103 °C.
In the case of `COC(=O)C1CCSc2cc(OC)c(OC)cc2C1=O` (stereo not given) it was 132 to 133 °C.
In the case of `O=C(NCc1cccc([N+](=O)[O-])c1)c1[nH]c2ccc(Cl)cc2c1S(=O)(=O)c1ccccc1` it was 253 to 254 °C; in that of `N#CCCN1CCN(P(=S)(N2CCN(CCC#N)CC2)N2CCN(CCC#N)CC2)CC1`, 122 °C; in that of `CNCCc1cc2c(cc1CC(=O)c1ccc(OC)c(OC)c1C(=O)O)OCO2`, 176 to 179 °C.
As for `O=P(Cc1ccccc1O)(c1ccccc1)c1ccccc1`, the figure is 179 °C; as for `CC1(C)C(=O)N(c2ccc([N+](=O)[O-])c(C(F)(F)F)c2)C(=O)N1CCCCCCN1C(=O)N(c2ccc([N+](=O)[O-])c(C(F)(F)F)c2)C(=O)C1(C)C`, 187 to 188 °C.
The compound `CCCCCCCCCCCCC1=C(Br)C(=O)c2ccccc2C1=O` yielded a melting point of 98 to 100 °C.
With `O=C(O)c1ccccc1Oc1cc(Cl)c(Cl)cc1NS(=O)(=O)c1cc(C(F)(F)F)cc(C(F)(F)F)c1`, the melting point lay in the range of 139 to 140 °C.
In the case of `CCCCCCCCc1ccccc1CCC(NC(C)=O)(C(=O)OCC)C(=O)OCC` it was 37 to 38 °C; in that of `O=C1CCC(O)C(C(c2ccccc2)c2ccccc2)N1` (stereo not given), 208 °C; in that of `Cc1oc(-c2ccccc2)nc1CC=Cc1ccc(CC2OC(=O)NC2=O)cc1` (stereo not given), 168 to 169 °C.
In the case of `COC(=O)c1cc(COc2nn(-c3ccccc3)cc2C=O)ccc1OCc1nc(-c2ccco2)oc1C` it was 173 to 174 °C.
As for `CN(C)CCCCNC(=O)c1ccc(-c2nnc(CSCCOc3ccccc3)o2)cc1`, the figure is 71 to 78 °C; as for `Cc1c(C(=O)O)nc2c(=O)[nH]c3cc(C(F)(F)F)c(-n4cccc4)cc3n12`, 265 to 270 °C; as for `N=C(Nc1ccc([N+](=O)[O-])cc1)c1ccccc1`, 240 to 241 °C.
`Nc1nc(NCc2ccccc2)nc(C(F)(F)F)n1` yielded a melting point of 183 to 185 °C.
As for `CCN(Cc1cc(-c2ncco2)ccc1-c1ccccc1S(=O)(=O)Nc1onc(C)c1C)CC(F)(F)F`, the figure is 55 to 65 °C; as for `CN1CCC(C2(O)c3ccccc3Oc3ccc(C(F)(F)F)cc32)CC1` (stereo not given), 179 to 183 °C.
As for `C=Cc1cc(C)cc(C)c1CC(=O)N(O)C1(C(=O)OC)CCN(OC)CC1`, the figure is 177 to 179 °C; as for `COc1cc2nc(-c3n[nH]cc3NC(=O)N3CCCCC3)[nH]c2cc1Cl`, over 310 °C; as for `COc1ccc(-c2nc(SCc3cccc(CSc4ncnc5nc[nH]c45)c3)[nH]c2-c2ccc(OC)cc2)cc1`, 129 to 130 °C.
As for `CCn1c2ccc(C=O)cc2c2cc(C=C(c3ccccc3)c3ccccc3)ccc21`, the figure is 166 to 167 °C; as for `CC(=O)NCCOC(=O)C(Oc1cccc(C(F)(F)F)c1)c1ccc(Cl)cc1` (stereo not given), 93 to 95 °C; as for `Cc1c(C(F)(F)F)n[nH]c1-c1ccc(Cl)cc1`, 139 °C.
Turning to `CCCCNc1ccc(Nc2ccccc2)c2c1C(=O)c1ccccc1C2=O`, the melting point is 118 to 120 °C.
`Cc1cccc(COc2cccc(OCc3coc(C4CCCCC4)n3)c2)c1C(=O)O` displayed a melting point of 158 to 159 °C.
In the case of `CN(C)C(=O)NCCNCC(O)COc1ccc(OCCOCC2CC2)cc1` (stereo not given) it was 86 °C; in that of `CCc1cc2ccccn2c1C(=O)c1ccc(O)cc1`, 179 to 180 °C; in that of `CCOC(=O)c1c(N)n(CC)c2nc(Cl)ccc2c1=O`, 252 °C.
As for `CC(C)(C)C(=O)c1[nH]c2cc(Cl)ccc2c1N`, the figure is 132 to 134 °C; as for `O=C(NCC(F)(F)F)c1ccc(C2=NOC(c3cc(Cl)cc(Cl)c3)(C(F)(F)F)C2)cc1` (stereo not given), 94 to 96 °C; as for `CN(C)C1(c2ccccc2)CCC(CNC(=O)N2CCC(c3c[nH]c4ccc(Cl)cc34)CC2)CC1` (stereo not given), 140 to 143 °C.
As for `CCCCC/C=C\C/C=C\C/C=C\C/C=C\CCCC(=O)N[C@@H](C)C(=O)N[C@H](CCC(=O)O)C(=O)O`, the figure is 90 °C; as for `Cc1c(C(F)(F)F)nn(-c2c(Cl)cc(C(F)(F)F)cc2Cl)c1N`, 97 to 100 °C.
Turning to `O=C(O)C12C3C4C5C(C1C53[N+](=O)[O-])C42[N+](=O)[O-]` (stereo not given), the melting point turned out to be 187 °C.
As for `O=C(Nc1ccc(F)cc1F)c1cccc(Cl)n1`, the figure is 86 to 87 °C.
In the case of `O=C(O)Cc1ccc(OCCCCc2cc(-c3ccc(C(F)(F)F)cc3)no2)cc1` it was 125 to 126 °C; in that of `COCCOc1ccc(CCNC(=O)/C=C/c2cccs2)cc1S(=O)(=O)NC(=S)NC(C)C`, 101 °C.
As for `COc1cc2c(cc1OC(C)=O)CCC1C2CCC2(C)C1C=CC21OCCO1` (stereo not given), the figure is 161 to 162 °C; as for `FC(F)(F)c1cccc(N2CCN(CCCCNc3cc(-c4ccccc4)ccn3)CC2)c1`, 120 °C.
Turning to `COC(=O)Cc1ccc(C(=C2CC(C)(C)CC(C)(C)C2)c2ccc(O)cc2)cc1`, the melting point is 154 to 155 °C.
As for `CNC(=S)C1(c2cccc(C)n2)CCCCS1` (stereo not given), the figure is 139 °C; as for `O=C(C=Cc1ccc(-c2ccc(O)cc2)cc1)NO`, over 300 °C.
In the case of `O=C1/C(=C/c2ccccc2)C(Br)c2ccccc21` (stereo not given) it was 118 to 119 °C.

As usually defined, the melting point is the temperature, or range, at which the solid turns liquid.
